These results are taken from publication PMC11022890 (Drug Metabolism and Disposition, 2021).

The target in data set [1] is T1, UGT1A9 (Homo sapiens, UniProt O60656).
T1 sequence (O60656 26-530): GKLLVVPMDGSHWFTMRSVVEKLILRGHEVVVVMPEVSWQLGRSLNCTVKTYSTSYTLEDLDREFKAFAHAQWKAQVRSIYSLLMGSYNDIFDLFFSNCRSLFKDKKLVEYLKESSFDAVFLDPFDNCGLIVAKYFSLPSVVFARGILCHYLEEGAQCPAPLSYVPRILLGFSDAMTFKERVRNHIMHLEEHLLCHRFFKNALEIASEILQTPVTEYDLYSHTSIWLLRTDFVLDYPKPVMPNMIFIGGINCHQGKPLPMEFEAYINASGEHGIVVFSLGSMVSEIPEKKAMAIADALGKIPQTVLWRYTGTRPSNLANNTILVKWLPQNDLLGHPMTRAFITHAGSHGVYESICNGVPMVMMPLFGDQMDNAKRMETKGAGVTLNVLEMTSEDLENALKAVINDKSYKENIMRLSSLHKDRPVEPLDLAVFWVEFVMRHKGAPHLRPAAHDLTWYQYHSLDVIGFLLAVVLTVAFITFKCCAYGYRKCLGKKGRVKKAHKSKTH
Kind of data set: in vitro. As to conditions: both, HLM.

In a further data set the target is T2, UGT1A4 (Homo sapiens, UniProt P22310).
T2 sequence (P22310 29-534): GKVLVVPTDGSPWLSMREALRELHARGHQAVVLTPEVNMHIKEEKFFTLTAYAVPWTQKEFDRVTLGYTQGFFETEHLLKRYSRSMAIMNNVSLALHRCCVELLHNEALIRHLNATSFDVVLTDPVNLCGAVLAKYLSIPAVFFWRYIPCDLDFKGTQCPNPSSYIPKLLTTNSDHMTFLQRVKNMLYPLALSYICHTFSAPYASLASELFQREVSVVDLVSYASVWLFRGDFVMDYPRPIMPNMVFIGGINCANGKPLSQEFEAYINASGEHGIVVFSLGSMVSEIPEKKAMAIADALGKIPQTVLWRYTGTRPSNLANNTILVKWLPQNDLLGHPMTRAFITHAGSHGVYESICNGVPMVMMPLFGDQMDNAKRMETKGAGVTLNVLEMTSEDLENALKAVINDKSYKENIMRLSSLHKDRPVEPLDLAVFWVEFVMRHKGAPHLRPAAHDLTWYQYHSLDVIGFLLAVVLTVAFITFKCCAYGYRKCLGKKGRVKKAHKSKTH
Kind of data set: Screening: inhibition of trifluoperazine glucuronidation in rUGT1A4 microsomes. Type of data set: in vitro ADME. The conditions noted are these: 10 or 100 µM.

The target of another data set is T3, UGT2B17 (Homo sapiens, UniProt O75795).
T3 sequence (O75795 24-530): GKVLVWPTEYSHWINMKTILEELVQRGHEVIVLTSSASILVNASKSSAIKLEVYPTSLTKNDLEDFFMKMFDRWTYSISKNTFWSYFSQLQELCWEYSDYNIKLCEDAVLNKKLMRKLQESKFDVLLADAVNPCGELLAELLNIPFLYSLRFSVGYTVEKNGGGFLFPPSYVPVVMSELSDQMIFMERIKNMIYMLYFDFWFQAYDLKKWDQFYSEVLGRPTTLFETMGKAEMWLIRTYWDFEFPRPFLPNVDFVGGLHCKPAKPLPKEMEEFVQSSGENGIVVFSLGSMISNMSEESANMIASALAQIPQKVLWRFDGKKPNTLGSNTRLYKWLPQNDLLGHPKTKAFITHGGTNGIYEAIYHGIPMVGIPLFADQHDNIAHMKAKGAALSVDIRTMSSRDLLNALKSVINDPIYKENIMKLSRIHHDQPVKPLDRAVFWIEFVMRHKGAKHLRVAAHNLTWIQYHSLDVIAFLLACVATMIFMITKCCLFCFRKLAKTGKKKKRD
The class given is in vitro ADME. The conditions noted are these: 100 µM; rUGT2B17 microsomes; dihydroexemestane; screening.

The target of the next data set is T4, UGT1A6 (Homo sapiens, UniProt P19224).
T4 sequence (P19224 27-532): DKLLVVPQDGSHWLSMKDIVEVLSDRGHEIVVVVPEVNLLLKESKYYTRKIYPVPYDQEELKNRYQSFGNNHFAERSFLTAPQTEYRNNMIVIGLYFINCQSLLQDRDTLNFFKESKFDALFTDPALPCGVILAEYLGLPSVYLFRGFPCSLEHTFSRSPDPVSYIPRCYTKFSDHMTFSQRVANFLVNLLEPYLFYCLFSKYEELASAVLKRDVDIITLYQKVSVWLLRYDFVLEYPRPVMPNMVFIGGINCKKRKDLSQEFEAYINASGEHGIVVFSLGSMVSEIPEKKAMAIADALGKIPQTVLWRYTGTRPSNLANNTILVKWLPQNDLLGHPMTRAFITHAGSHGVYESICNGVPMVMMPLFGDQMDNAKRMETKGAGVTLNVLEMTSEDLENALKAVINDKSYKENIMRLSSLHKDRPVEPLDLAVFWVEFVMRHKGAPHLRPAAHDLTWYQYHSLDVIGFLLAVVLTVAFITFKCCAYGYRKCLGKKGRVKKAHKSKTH
Kind of data set: Inhibition of serotonin glucuronidation in rUGT1A6 microsomes. Type of data set: in vitro ADME. As to conditions: for inhibition vs control without cannabinoid: serotonin.

For a further data set, the target named is T5, UGT2B4 (Homo sapiens, UniProt P06133).
T5 sequence (P06133 24-528): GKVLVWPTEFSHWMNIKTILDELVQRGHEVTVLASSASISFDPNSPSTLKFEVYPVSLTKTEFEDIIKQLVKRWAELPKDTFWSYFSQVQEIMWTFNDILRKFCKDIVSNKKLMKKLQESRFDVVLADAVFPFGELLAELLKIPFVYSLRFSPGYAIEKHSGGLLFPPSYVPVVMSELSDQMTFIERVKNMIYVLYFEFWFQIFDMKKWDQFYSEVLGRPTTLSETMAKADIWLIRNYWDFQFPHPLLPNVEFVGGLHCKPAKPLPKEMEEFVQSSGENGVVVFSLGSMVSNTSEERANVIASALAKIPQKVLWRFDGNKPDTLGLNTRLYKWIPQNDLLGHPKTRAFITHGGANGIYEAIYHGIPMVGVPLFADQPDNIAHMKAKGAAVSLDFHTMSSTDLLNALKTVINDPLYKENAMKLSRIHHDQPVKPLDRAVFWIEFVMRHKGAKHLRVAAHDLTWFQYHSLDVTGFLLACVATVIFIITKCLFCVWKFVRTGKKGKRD
Kind of data set: Inhibition of codeine glucuronidation in rUGT2B4 microsomes. Type of data set: in vitro ADME.

For data set [2], the target named is T1, UGT1A9. The data set is described as follows: Inhibition of propofol glucuronidation in rUGT1A9 microsomes. The class given is in vitro ADME.
Data set [3] deals with T6, UGT1A9 in human liver microsomes (Homo sapiens, UniProt O60656).
T6 sequence (O60656 26-530): T1 sequence (O60656 26-530)
The data set is described as follows: biochemical. As to conditions: HLM.

[4] abbreviates: IC50, probe substrate furosemide.
[5] abbreviates: IC50,u (binding-corrected IC50), probe substrate furosemide.
[6] abbreviates: IC50,u (binding-corrected IC50), probe substrate propofol.

As usually defined, the IC50 is the point on the concentration scale where inhibition reaches its midpoint. A lower IC50 goes with higher potency.

As to `C=C(C)[C@@H]1CCC(C)=C[C@H]1c1c(O)cc(CCCCC)cc1O` [CBD, cannabidiol], the half-maximal inhibitory concentration (IC50) was 29000 ± 4000 nM against UGT1A9 [1] (setting [4]); 1500 ± 200 nM on UGT1A9 [1] (setting [5]); 400 ± 100 nM at UGT1A6 (IC50,u (binding-corrected IC50), probe substrate serotonin); 5800 ± 1200 nM on UGT2B4 (IC50, probe substrate codeine); 220 ± 45 nM at UGT2B4 (IC50,u (binding-corrected IC50), probe substrate codeine); 3200 ± 520 nM at UGT1A9 [2] (IC50, probe substrate propofol). The IC50 at UGT1A9 [2] (setting [6]) amounted to 120 ± 20 nM; in data set [3] (IC50, probe substrate propofol), 19000 ± 4600 nM; in data set [3] (setting [6]), 1000 ± 240 nM. For the same compound, on UGT1A4, the “inhibition in screening (in words)” value is “no significant inhibition”. Besides, the “inhibition vs control without cannabinoid” value against UGT2B17 is reported as 43%; against UGT1A6 (10 µM, screening), 25%; against UGT1A6 (100 µM, screening in duplicate), 54%; at UGT2B4 (10 µM, codeine, screening), 66%; against UGT1A9 [2] (10 µM, propofol, screening), 91%.

As for `CCCCCc1cc(O)c2c(c1)OC(C)(C)c1ccc(C)cc1-2` [CBN, cannabinol], the half-maximal inhibitory concentration (IC50) on UGT1A9 [1] (setting [4]) stood at 30000 ± 4500 nM; on UGT1A9 [1] (setting [5]), 2800 ± 960 nM; on UGT1A9 [2] (IC50, probe substrate propofol) it was 6000 ± 750 nM; on UGT1A9 [2] (setting [6]), 510 ± 63 nM; in data set [3] (IC50, probe substrate propofol) it was 31000 ± 4100 nM; in data set [3] (setting [6]) it was 2900 ± 380 nM. The “inhibition in screening (in words)” value at UGT1A4 is reported as “no significant inhibition”; against UGT2B4 (10 or 100 µM), “significant inhibition was not observed”; against UGT1A9 [2] (10 or 100 µM) it was “significant inhibition”. Also, the “inhibition vs control without cannabinoid” value at UGT2B17 stood at 34%; at UGT1A6 (100 µM, screening in duplicate), 43%.
